# Laboratory results: patent publication US20250136997A1, “COMPOSITIONS FOR SEQUESTERING ISOAMYL AMINE AND METHODS OF USE THEREFOR” (University of Louisville Research Foundation, Inc., priority 2023, published 2025)
# How the values were obtained:
# microglial cells [1] = experiment: Western blot of cleaved caspase-3 and cleaved PARP in ex vivo cultured microglial cells; type: cell-based, mouse
# Method: Isolation of microglia, neuron, astrocytes, and oligodendrocytes from the brain. Mice were anaesthetized with a mixture of ketamine (16%) and xylazine (3%) by intraperitoneal injection and then sacrificed under basal conditions by transcardial perfusion with perfusion buffer (Ca^2+/Mg^2+ free HBSS containing 0.5 mM EGTA, 10 mM HEPES and 4.2 mM NaHCO3; pH 7.2). The perfused brain was removed and gently mechanically disaggregated with tweezers in dissociation buffer (HBSS containing 10 mM HEPES and 4.2 mM NaHCO3 supplemented with Type I collagenase (0.05%), Dispase II (25 mg/ml), DNase I (2.5 mg/ml), trypsin inhibitor ([…]); pH 7.5) followed by incubation at 37° C. for 1 hour. The tissue homogenate was centrifuged at 1,350×g for 5 minutes at 4° C. For the isolation of microglia, the digestion enzymes in the tissue homogenate were inactivated by addition of PBS/EDTA containing 5% fetal bovine serum (FBS) and the digested brain bits were triturated gently, passed over a 100 µm filter (Fisher Scientific) and centrifuged. […] The pellet of cells was rinsed in PBS. Any contaminating red blood cells (RBC) were lysed using RBC lysis buffer (Sigma) according to the manufacturer's instructions, rinsed twice with PBS and passed through a 40 µm filter (Fisher Scientific). Cells were then stained for CD11b and CD45 for flow cytometry analysis. The astrocytes were isolated from mouse cortices (n=10). The tissue homogenate was centrifuged at 800×g for 10 minutes at 4° C. following digestion with type II collagenase (1 mg/ml) and type I DNase (10 U/ml) in DMEM for 10 minutes. The cells pelleted by centrifugation were plated in a 100 mm culture dish coated with poly-L-ornithine (Sigma). For the isolation of oligodendrocytes, the glial cells above were cultured in specific media containing T3 and T4 (0.5 mM) as well as platelet-derived growth factor (PDGF, 10 ng/ml) to promote the growth of the different cell types. Isolated glial cells were labelled with the following antibodies against surface markers: CD11b (Biolegend, Cat #101206), CD45 (Biolegend, Cat #147710), GFAP (Biolegend, Cat #837508) and MOG (Biorbyt, Cat #orb412341-FITC). Cells positive for CD11b and CD45Med were identified as microglia. Cells positive for GFAP and negative for CD45 and CD11b were identified as astrocytes. Cells sorted with MOG+CD11b− were identified as oligodendrocytes. Neurons were isolated from mouse brain using the Pierce Primary Neuron Isolation Kit (Thermo Scientific, Cat #88280). Briefly, the tissue homogenate from freshly dissected cortexes was suspended in an equal volume of ice cold HBSS (Sigma) and replaced with Neuronal Isolation Enzyme (with papain) in a 37° C. incubator for 30 minutes. After washing with HBSS, the tissue was cultured in a poly-D-lysine coated plate with Neuronal Culture Medium.
# Western blotting. Cells were treated as indicated in individual Figure legends and whole cell extracts (WCE) were prepared in the radioimmunoprecipitation assay (RIPA) buffer (Sigma) with addition of protease and phosphatase inhibitors (Roche). Proteins were separated by 10% SDS-PAGE and transferred to polyvinylidene difluoride (PVDF) membranes (Bio-Rad Laboratories, Inc., Hercules, CA). Dual color precision protein MW markers (BioRad) were separated in parallel. Antibodies were purchased as follows: cleaved-caspase-3 (ab214430), cleaved PARP (ab203467) and GAPDH (ab9657, Abcam) from Abcam; S100A8 (47310) and S100a9 (72590) from Cell Signaling; and Ltf (GTX81085) from GeneTex. The secondary antibodies conjugated to Fluors Alex-488 (A32723) or Alex-594 (A11012) were purchased from Invitrogen (Eugene, OR). The bands were visualized on the Odyssey Imager (LiCor Inc, Lincoln, NE).
# microglial cells [2] = experiment: FACS analysis of apoptotic bodies (ABs) in supernatants of cultured microglial cells; type: cell-based, mouse; settings: microglial cells isolated from young mice
# Method: Flow cytometry. Isolated cells were incubated with blocking solution (0.5% BSA/PBS) for 15 minutes at 4° C. For surface staining, cells were stained with various antibodies at room temperature for 1 hour and then washed with PBS. Washed cells were stained for 40 minutes at 4° C. with the appropriate fluorochrome-conjugated antibodies in PBS with 2% FBS. Data were acquired using a BD FACSCalibur flow cytometer (BD Biosciences, San Jose, CA) and analyzed using FlowJo software (Tree Star Inc., Ashland, OR). The following antibodies purchased from Biolegend were used for flow cytometry: anti-CD11b (101208), anti-CD45 (103112) and FITC Annexin V (640945). For the ABs analysis, extracellular vesicles were collected. To recognize the ABs, as described previously, size gates set based on forward scatter (FSC) were applied in combination with Annexin V staining. From these vesicles total ABs were detected using Annexin V staining events.
# Isolation of apoptotic bodies. Apoptotic bodies (ABs) were isolated from culture supernatants as previously described. Briefly, cell culture medium was harvested and cells were removed by pelleting at 335×g for 10 minutes. To remove cell-debris, supernatants were centrifuged at 1,000×g for 10 minutes, followed by another centrifugation at 2,000×g for 30 minutes to pellet ABs. Pelleted ABs were resuspended and washed with PBS.
# promoter of S100A8 = experiment: SPR of p53 protein and biotinylated oligo with or without IAA; type: binding, mouse
# [3] = added to ex vivo cultured microglial cells from young mice
structure (smiles),measurement,setting,value
"CC(C)CCN [IAA, isoamylamine]",effect on the microglia (cleaved caspase-3),microglial cells [1]; S100A8 deficient microglia cells,abolished
same,cleaved caspase-3,microglial cells [1]; [3],increasing
same,cleaved poly(-ADP-ribose) polymerase (PARP),microglial cells [1]; [3],increasing
same,ABs released into the culture supernatants,microglial cells [2],increase
same,p53 binding to promoter of S100A8 (SPR),promoter of S100A8,p53 binds to promoter of S100A8 in an IAA dependent manner
